Results published in patent US9309222B2, “Phenyl linked quinolinyl modulators of RORγt” (Janssen Pharmaceutica NV, priority 2012, dated 2016).
Several values for one entry are separate records, joined by “and”; a condition that tells them apart may be missing. Identical values can stand only once. Counter-ions that a name gives are not always drawn. Each block holds one compound with its values, some of them ahead of it.

How the values were obtained:
[1] = test system: IL-17 production by CD4 T cells; experiment: Human Th17 assay (IL-17 production by CD4 T cells under Th17 differentiation conditions); format: cell-based; conditions: IL-17 in supernatant after 3 days
Protocol: The human Th17 assay tests the effect of RORγt modulatory compounds on IL-17 production by CD4 T cells under conditions which favor Th17 differentiation. Total CD4^+ T cells were isolated from the peripheral blood mononuclear cells (PBMC) of healthy donors using a CD4^+ T cell isolation kit II, following the manufacturer's instructions (Miltenyi Biotec). […] 50 μL of compound at titrated concentrations in DMSO were added into each well at final DMSO concentration at 0.2%. Cells were incubated for 1 hour, then 50 μL of Th17 cell differentiation medium was added to each well. The final concentrations of antibodies and cytokines (R&D Systems) in differentiation medium were: 3×10^6/mL anti-CD3/CD28 beads (prepared using human T cell activation/expansion kit, Miltenyi Biotec), 10 μg/mL anti-IL4, 10 μg/mL anti-IFNγ, 10 ng/mL IL113, 10 ng/mL IL23, 50 ng/mL IL6, 3 ng/mL TGFβ and 20 U/mL IL2. Cells were cultured at 37° C. and 5% CO2 for 3 days. Supernatants were collected and the accumulated IL-17 in culture was measured by using MULTI-SPOT® Cytokine Plate following manufacture's instruction (Meso Scale Discovery). The plate was read using Sector Imager 6000, and IL-17 concentration was extrapolated from the standard curve. The IC50s were determined by GraphPad.

[2] = target: T1, human RORγt LBD (Homo sapiens, UniProt P51449); experiment: RORγt reporter assay (GAL4-RORγt LBD luciferase in HEK293T cells); format: cell-based; conditions: for IC50 / RORγt reporter Assay, % inhibition @ 6 μM: HEK293T cells; for IC50: 24 hours compound treatment; for inhibition at 6 µM: HEK-293T, read-out: RORγt reporter Assay, % inhibition @ 6 μM, HEK293T cells, 6 μM compound; for RORγt reporter Assay, % inhibition @ 6 μM: 6 μM compound
T1 construct: expressed in transfected cells
T1 sequence (P51449 258-518): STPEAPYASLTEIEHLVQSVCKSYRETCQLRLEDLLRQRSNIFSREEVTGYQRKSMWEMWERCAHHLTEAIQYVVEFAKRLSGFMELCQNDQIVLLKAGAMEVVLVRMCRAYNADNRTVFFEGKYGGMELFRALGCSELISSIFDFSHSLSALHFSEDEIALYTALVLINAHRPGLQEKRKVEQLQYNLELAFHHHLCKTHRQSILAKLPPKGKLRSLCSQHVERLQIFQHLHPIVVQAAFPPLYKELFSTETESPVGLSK
Summary of the method: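 HEK293T cells transiently co-transfected with pBIND (GAL4 DBD fused to wild-type human RORγt LBD, plus SV40-driven renilla luciferase) and pGL4.31 GAL4-responsive firefly luciferase reporter. Plated in phenol-red-free DMEM with 5% lipid-reduced FCS and treated with compound for 24 h. Firefly/renilla luminescence ratio plotted against compound concentration.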

[3] = target: T2, human RORγt ligand binding domain (RORγt LBD) (Homo sapiens, UniProt P51449); experiment: RORγt ThermoFluor assay (thermal shift, ligand binding affinity); conditions: estimated from concentration response of thermal shift
T2 construct: His-tag (N); TurboTEV protease cleavage site (ENLYFQG) (N); made in house; host or cells: E. coli (pHIS1, modified pET vector)
T2 sequence (P51449 with tags, fused parts or gaps): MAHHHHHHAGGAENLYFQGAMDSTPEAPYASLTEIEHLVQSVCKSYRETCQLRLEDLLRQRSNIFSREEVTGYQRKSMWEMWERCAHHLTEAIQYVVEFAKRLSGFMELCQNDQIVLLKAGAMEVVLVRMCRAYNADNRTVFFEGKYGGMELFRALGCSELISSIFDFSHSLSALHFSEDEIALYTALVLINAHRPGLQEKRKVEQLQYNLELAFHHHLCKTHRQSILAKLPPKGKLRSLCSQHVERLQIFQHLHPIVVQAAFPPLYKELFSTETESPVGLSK
Summary of the method: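 Thermal shift of 0.065 mg/mL RORγt with 60 μM 1,8-ANS in 100 mM Hepes pH 7.0, 10 mM NaCl, 2.5 mM GSH, 0.002% Tween-20. Compounds in 1:2 series from 10 mM DMSO stock. Dye fluorescence (500 nm emission) tracked versus temperature; ΔTm used to derive KD.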

SMILES: Cn1cncc1C(O)(c1ccc(Cl)cc1)c1ccc2nc(Cl)c(-c3ccccc3)c(Cl)c2c1 (racemic) [Example 119a, (4-Chlorophenyl)(2,4-dichloro-3-phenylquinolin-6-yl)(1-methyl-1H-imidazol-5-yl)methanol]
- IC50 ([1]; Homo sapiens, CD4+ T, 72 h): 1800 nM

SMILES: Cn1cncc1C(O)(c1ccc(Cl)cc1)c1ccc2nc(Cl)c(-c3ccccc3)c(Cl)c2c1 (single isomer, unassigned) [Example 119b, (4-Chlorophenyl)(2,4-dichloro-3-phenylquinolin-6-yl)(1-methyl-1H-imidazol-5-yl)methanol]
- IC50 [1]: 15000 nM

SMILES: Cn1cncc1C(O)(c1ccc(Cl)cc1)c1ccc2nc(Cl)c(-c3ccccc3)c(Cl)c2c1 (single isomer, unassigned) [Example 119c, (4-Chlorophenyl)(2,4-dichloro-3-phenylquinolin-6-yl)(1-methyl-1H-imidazol-5-yl)methanol]
- IC50 ([1]; Homo sapiens, CD4+ T, 72 h): 700 nM

SMILES: OC(c1ccccc1)(c1cccnc1)c1ccc2nc(Cl)c(-c3ccccc3)c(Cl)c2c1 (centres unmarked) [Example 2, (2,4-Dichloro-3-phenylquinolin-6-yl)(phenyl)(pyridin-3-yl)methanol]
- IC50 ([1]; Homo sapiens, CD4+ T, 72 h): 620 nM
- IC50 [1]: ~700 nM

SMILES: Cn1cncc1C(O)(c1ccncc1)c1ccc2nc(Cl)c(-c3ccccc3)c(Cl)c2c1 (centres unmarked) [Example 16, (2,4-Dichloro-3-phenylquinolin-6-yl)(1-methyl-1H-imidazol-5-yl)(pyridin-4-yl)methanol]
- IC50 ([1]; Homo sapiens, CD4+ T, 72 h): 130 nM

SMILES: CN(C)c1nc2ccc(C(O)(c3ccncc3)c3cncn3C)cc2c(Cl)c1-c1ccccc1 (centres unmarked) [Example 48a, (4-Chloro-2-(dimethylamino)-3-phenylquinolin-6-yl)(1-methyl-1H-imidazol-5-yl)pyridin-4-ylmethanol•TFA]
- IC50 ([1]; Homo sapiens, CD4+ T, 72 h): 19 nM

SMILES: Cn1cncc1C(O)(c1cccnc1)c1ccc2nc(Cl)c(-c3ccccc3)c(Cl)c2c1 (centres unmarked) [Example 49, (2,4-Dichloro-3-phenylquinolin-6-yl)(1-methyl-1H-imidazol-5-yl)(pyridin-3-yl)methanol]
- IC50 ([1]; Homo sapiens, CD4+ T, 72 h): 410 nM

SMILES: Cc1cc(C(O)(c2ccc3nc(Cl)c(-c4ccccc4)c(Cl)c3c2)c2cncn2C)ccn1 (centres unmarked) [Example 67, (2,4-Dichloro-3-phenylquinolin-6-yl)(1-methyl-1H-imidazol-5-yl)(2-methylpyridin-4-yl)methanol•TFA]
- IC50 ([1]; Homo sapiens, CD4+ T, 72 h): 27 nM

SMILES: Cn1cncc1C(O)(c1ccnc(F)c1)c1ccc2nc(Cl)c(-c3ccccc3)c(Cl)c2c1 (centres unmarked) [Example 86, (2,4-Dichloro-3-phenylquinolin-6-yl)(2-fluoropyridin-4-yl)(1-methyl-1H-imidazol-5-yl)methanol•TFA]
- IC50 ([1]; Homo sapiens, CD4+ T, 72 h): 37 nM

SMILES: Cc1nc(C)c(C(O)(c2ccc3nc(Cl)c(-c4ccccc4)c(Cl)c3c2)c2cncn2C)s1 (centres unmarked) [Example 143, (2,4-Dichloro-3-phenylquinolin-6-yl)(2,4-dimethylthiazol-5-yl)(1-methyl-1H-imidazol-5-yl)methanol]
- IC50 ([1]; Homo sapiens, CD4+ T, 72 h): 20 nM

SMILES: Cn1cncc1C(O)(c1ccc(Cl)cc1)c1ccc2nc(Cl)c(-c3ccccc3)c(Cl)c2c1F (centres unmarked) [Example 163, (4-Chlorophenyl)(2,4-dichloro-5-fluoro-3-phenylquinolin-6-yl)(1-methyl-1H-imidazol-5-yl)methanol•TFA]
- IC50 [2]: 1400 nM
- inhibition at 6 µM [2]: 87%
- Kd [3]: 1200 nM

SMILES: OC(c1ccccc1)(c1ccc2nc(C(F)(F)F)c(-c3ccccc3)c(C(F)(F)F)c2c1)C1CCNCC1 (centres unmarked) [Example 167, Phenyl(3-phenyl-2,4-bis(trifluoromethyl)quinolin-6-yl)(piperidin-4-yl)methanol•TFA]
- IC50 [2]: > 6000 nM
- inhibition at 6 µM [2]: 62%
- Kd [3]: 400 nM

SMILES: CCN1CCC(C(O)(c2ccccc2)c2ccc3nc(C(F)(F)F)c(-c4ccccc4)c(C(F)(F)F)c3c2)CC1 (centres unmarked) [Example 168, (1-Ethylpiperidin-4-yl)(phenyl)(3-phenyl-2,4-bis(trifluoromethyl)quinolin-6-yl)methanol•TFA]
- IC50 [2]: ~6000 nM
- inhibition at 6 µM [2]: 71%
- Kd [3]: 3300 nM

SMILES: Cn1cncc1C(O)(c1ccc(C(F)(F)F)nc1)c1ccc2nc(C(F)(F)F)c(-c3ccccc3)c(Cl)c2c1 (centres unmarked) [Example 172, (4-Chloro-3-phenyl-2-(trifluoromethyl)quinolin-6-yl)(1-methyl-1H-imidazol-5-yl)(6-(trifluoromethyl)pyridin-3-yl)methanol•TFA]
- IC50 [2]: 140 nM
- inhibition at 6 µM [2]: 96%
- Kd [3]: 4.6 nM

Now from value to compound:

- IC50 [2]: 230 nM and ~400 nM
- inhibition at 6 µM [2]: 96%
- Kd [3]: 71 nM
- IC50 ([1]; Homo sapiens, CD4+ T, 72 h): 480 nM
- IC50 [1]: ~700 nM
SMILES: Cn1cncc1C(O)(c1ccc(Cl)cc1)c1ccc2nc(Cl)c(-c3ccccc3Cl)c(Cl)c2c1 (racemic) [Example 153a, (4-Chlorophenyl)(2,4-dichloro-3-(2-chlorophenyl)quinolin-6-yl)(1-methyl-1H-imidazol-5-yl)methanol]

- IC50 [2]: 72 nM
- inhibition at 6 µM [2]: 96%
- Kd [3]: 8.1 nM
- IC50 ([1]; Homo sapiens, CD4+ T, 72 h): 66 nM
SMILES: CC(=O)N1CCC(C(O)(c2ccccc2)c2ccc3nc(C(F)(F)F)c(-c4ccccc4)c(C(F)(F)F)c3c2)CC1 (racemic) [Example 169a, 1-(4-(Hydroxy(phenyl)(3-phenyl-2,4-bis(trifluoromethyl)quinolin-6-yl)methyl)piperidin-1-yl)ethanone]

- RORγt reporter Assay, % inhibition @ 6 μM [2]: 93%
- IC50 [2]: 690 nM
- Kd [3]: 270 nM
- IC50 [1]: 1600 nM
SMILES: Cn1cncc1C(O)(c1ccc(Cl)cc1)c1ccc2nc(Cl)c(-c3ccccc3Cl)c(Cl)c2c1 (single isomer, unassigned) [Example 153b, (4-Chlorophenyl)(2,4-dichloro-3-(2-chlorophenyl)quinolin-6-yl)(1-methyl-1H-imidazol-5-yl)methanol]

- RORγt reporter Assay, % inhibition @ 6 μM [2]: 96%
- IC50 [2]: 140 nM
- Kd [3]: 19 nM
- IC50 [1]: 250 nM
SMILES: Cn1cncc1C(O)(c1ccc(Cl)cc1)c1ccc2nc(Cl)c(-c3ccccc3Cl)c(Cl)c2c1 (single isomer, unassigned) [Example 153c, (4-Chlorophenyl)(2,4-dichloro-3-(2-chlorophenyl)quinolin-6-yl)(1-methyl-1H-imidazol-5-yl)methanol]

- IC50 [2]: 3.8 nM
- inhibition at 6 µM [2]: 94%
- Kd [3]: 3 nM
- IC50 [1]: 27 nM
SMILES: CC(=O)N1CCC(C(O)(c2ccccc2)c2ccc3nc(C(F)(F)F)c(-c4ccccc4)c(C(F)(F)F)c3c2)CC1 (single isomer, unassigned) [Example 169b, 1-(4-(Hydroxy(phenyl)(3-phenyl-2,4-bis(trifluoromethyl)quinolin-6-yl)methyl)piperidin-1-yl)ethanone]

- RORγt reporter Assay, % inhibition @ 6 μM [2]: 96%
- IC50 [2]: 100 nM
- Kd [3]: 52 nM
- IC50 [1]: 110 nM
SMILES: CC(=O)N1CCC(C(O)(c2ccccc2)c2ccc3nc(C(F)(F)F)c(-c4ccccc4)c(C(F)(F)F)c3c2)CC1 (single isomer, unassigned) [Example 169c, 1-(4-(Hydroxy(phenyl)(3-phenyl-2,4-bis(trifluoromethyl)quinolin-6-yl)methyl)piperidin-1-yl)ethanone]

- RORγt reporter Assay, % inhibition @ 6 μM [2]: 95%
- IC50 ([1]; Homo sapiens, CD4+ T, 72 h): 130 nM
SMILES: Cn1cncc1C(O)(c1ccc(C(F)(F)F)nc1)c1ccc2nc(C(F)(F)F)c(-c3ccccc3)c(C#N)c2c1 (single isomer, unassigned) [Example 173c, 6-(Hydroxy(1-methyl-1H-imidazol-5-yl)(6-(trifluoromethyl)pyridin-3-yl)methyl)-3-phenyl-2-(trifluoromethyl)quinoline-4-carbonitrile]
